The test system of data set [1] is patients with AML. Particulars: cited from earlier work; for CR rates: randomized phase III clinical trials.
Data set [2] is described as follows: Decitabine plasma pharmacokinetics. Particulars: for AUC(0-inf) / AUC(0-t) / Cmax: intravenous; for AUC(0-inf): Mean AUCinf (SD); for AUC(0-t): Mean AUCt (SD); for Cmax: Mean Cmax (SD). The format is in vivo, human.
Data set [3] deals with patients with AML and/or MDS. Particulars: cited from earlier work.
The nature of data set [4]: Vorinostat serum pharmacokinetics. Particulars: for AUC(0-inf) / AUC(0-t) / Cmax / half-life: human, oral; for AUC(0-inf): Mean AUCinf (SD); for AUC(0-t): Mean AUCt (SD); for Cmax: Mean Cmax (SD); for half-life: Mean t½ (SD). The class given is in vivo, human.
The mark [5] stands for this setting: Concurrent schedule: decitabine 20 mg/m^2/day (n = 6), Day 1, cycle 1.
The mark [6] stands for this setting: Concurrent schedule: decitabine 20 mg/m^2/day (n = 6), Day 5, cycle 1.
Where [7] appears, read: Sequential schedule: decitabine 20 mg/m^2/day (n = 3), Day 1, cycle 1.
Setting [8] is: Sequential schedule: decitabine 20 mg/m^2/day (n = 3), Day 5, cycle 1.
Setting [9] is: human, 20 mg/m^2/day, Concurrent schedule: decitabine 20 mg/m^2/day (n = 6), Day 1, cycle 1.
[10] abbreviates: human, 20 mg/m^2/day, Concurrent schedule: decitabine 20 mg/m^2/day (n = 6), Day 5, cycle 1.
The mark [11] stands for this setting: human, 20 mg/m^2/day, Sequential schedule: decitabine 20 mg/m^2/day (n = 3), Day 1, cycle 1.
Setting [12] is: human, 20 mg/m^2/day, Sequential schedule: decitabine 20 mg/m^2/day (n = 3), Day 5, cycle 1.
[13] abbreviates: Concurrent schedule, 100 mg bid days 1–21, Day 15 (n = 1).
Setting [14] is: 100 mg, Concurrent schedule, 100 mg bid days 1–21, Day 4 (n = 3).
The mark [15] stands for this setting: 100 mg, Concurrent schedule, 100 mg bid days 1–21, Day 15 (n = 1).
Setting [16] is: 100 mg, Sequential schedule, 100 mg bid days 6–21 (n = 4), day 9 of cycle 1.
[17] abbreviates: 200 mg, Concurrent schedule, 200 mg bid days 1–21, Day 4 (n = 10).
Where [18] appears, read: 200 mg, Concurrent schedule, 200 mg bid days 1–21, Day 15 (n = 7).
Where [19] appears, read: 200 mg, Concurrent schedule, 200 mg tid days 1–14, Day 4 (n = 7).
Setting [20] is: 200 mg, Sequential schedule, 200 mg bid days 6–21 (n = 4), day 9 of cycle 1.
Setting [21] is: 200 mg, Sequential schedule, 200 mg tid days 6–21 (n = 8), day 9 of cycle 1.

Here are results for three molecules from article PMC4688006 (Leukemia & lymphoma, 2015).

As a reminder, the AUC(0-inf) is total exposure, with the tail of the curve extrapolated. Broadly, the AUC(0-t) is exposure summed from dosing to a finite time, without extrapolation to infinity. A higher AUC(0-t) goes with more exposure. The Cmax is the highest concentration seen after dosing. What is called half-life is the time in which the quantity being followed falls by half.

`Nc1ncn([C@@H]2O[C@H](CO)[C@@H](O)[C@H]2O)c(=O)n1` [azacitidine]: the CR rates in data set [1] is listed as 9–18%.

With `Nc1ncn([C@H]2C[C@H](O)[C@@H](CO)O2)c(=O)n1` [decitabine, 5-aza-2’-deoxycytidine], the CR rates in data set [1] is reported as 9–18%. The “overall response rates (ORRs)” value in data set [1] (single agent, three multicenter trials (two phase II, one phase III)) is 25–30%. The “complete response [CR] rate” value in data set [1] (single agent, three multicenter trials) is given as 13–25%. Also, the “Mean CL (SD)” value in data set [2] (setting [5]) is recorded as 202.8 (153.7) L/h/m^2; in data set [2] (setting [6]), 139.6 (55.1) L/h/m^2; in data set [2] (setting [7]) it was 254.8 (134.3) L/h/m^2; in data set [2] (setting [8]), 226.2 (121.6) L/h/m^2. In addition, the “Mean t^1/2 (SD)” value is given as 0.36 (0.12) h in data set [2] (setting [5]), 0.40 (0.17) h in data set [2] (setting [6]), 0.36 (0.05) h in data set [2] (setting [7]) and 0.42 (0.18) h in data set [2] (setting [8]). The “Mean Cmax (SD)” value in data set [2] (setting [8]) is given as 129.9 (87.1) ng/mL. Moreover, the AUC(0-inf) stood at 152 ng·h/mL in data set [2] (setting [9]), 170 ng·h/mL in data set [2] (setting [10]), 105 ng·h/mL in data set [2] (setting [11]) and 111 ng·h/mL in data set [2] (setting [12]). For the same molecule, the AUC(0-t) is 149 ng·h/mL in data set [2] (setting [9]), 166 ng·h/mL in data set [2] (setting [10]), 102 ng·h/mL in data set [2] (setting [11]) and 107 ng·h/mL in data set [2] (setting [12]). For the same molecule, the figures for the Cmax in data set [2] (setting [9]), in data set [2] (setting [10]) and in data set [2] (setting [11]) were 193 ng/mL, 236 ng/mL and 137 ng/mL, respectively. Besides, in data set [2] (human, iv, 20 mg/m^2/day), the half-life is ~0.333 h.

Consider `O=C(CCCCCCC(=O)Nc1ccccc1)NO` [vorinostat, suberoylanilide hydroxamic acid], for which the MTD in data set [3] (for 14 consecutive days every 21 days) is given as 200 mg bid or 250 mg tid. Moreover, the “responses (CR and/or CRi)” value in data set [3] (single agent) is on record as 4.5–10%. The “Mean CL/F (SD)” value is 4.35 (1.26) L/min in data set [4] (Concurrent schedule, 100 mg bid days 1–21, Day 4 (n = 3)); 2.74 L/min in data set [4] (setting [13]); 4.02 (1.30) L/min in data set [4] (Concurrent schedule, 200 mg bid days 1–21, Day 4 (n = 10)); 4.70 (2.45) L/min in data set [4] (Concurrent schedule, 200 mg bid days 1–21, Day 15 (n = 7)); 2.86 (0.81) L/min in data set [4] (Concurrent schedule, 200 mg tid days 1–14, Day 4 (n = 7)); 4.80 (0.79) L/min in data set [4] (Sequential schedule, 100 mg bid days 6–21 (n = 4), day 9 of cycle 1). The “Mean CL/F (SD)” value was 5.57 (5.26) L/min in data set [4] (Sequential schedule, 200 mg bid days 6–21 (n = 4), day 9 of cycle 1) and 5.89 (4.48) L/min in data set [4] (Sequential schedule, 200 mg tid days 6–21 (n = 8), day 9 of cycle 1). The “Mean Cmax (SD)” value in data set [4] (setting [13]) is given as 226.3 ng/mL. The AUC(0-inf) was determined as 407 ng·h/mL in data set [4] (setting [14]); 609 ng·h/mL in data set [4] (setting [15]); 352 ng·h/mL in data set [4] (setting [16]); 930 ng·h/mL in data set [4] (setting [17]); 1010 ng·h/mL in data set [4] (setting [18]); 1240 ng·h/mL in data set [4] (setting [19]). Further, the AUC(0-inf) came to 974 ng·h/mL in data set [4] (setting [20]) and 910 ng·h/mL in data set [4] (setting [21]). Besides, the AUC(0-t) in data set [4] (setting [14]) stood at 400 ng·h/mL; in data set [4] (setting [15]), 608 ng·h/mL; in data set [4] (setting [16]), 276 ng·h/mL; in data set [4] (setting [17]), 734 ng·h/mL; in data set [4] (setting [18]) it was 778 ng·h/mL; in data set [4] (setting [19]) it was 1060 ng·h/mL. The AUC(0-t) came to 556 ng·h/mL in data set [4] (setting [20]) and 743 ng·h/mL in data set [4] (setting [21]). Besides, the Cmax in data set [4] (setting [14]) was 151 ng/mL; in data set [4] (setting [16]), 117 ng/mL; in data set [4] (setting [17]), 252 ng/mL; in data set [4] (setting [18]) it was 246 ng/mL; in data set [4] (setting [19]) it was 353 ng/mL; in data set [4] (setting [20]), 126 ng/mL. The peak level in data set [4] (setting [21]) (Cmax) was 263 ng/mL. For the same molecule, the half-life in data set [4] (setting [14]) is 1.04 h; in data set [4] (setting [15]), 0.62 h; in data set [4] (setting [18]) it was 2.34 h; in data set [4] (setting [19]) it was 2.68 h; in data set [4] (setting [20]) it was 3.34 h; in data set [4] (setting [21]), 1.65 h.
